The numbers were not newly measured in patent US20070027075A1, “Compositions and methods for targeted drug delivery” (priority 2003, published 2007), which cites them from elsewhere.

The data set concerns the target prostate-specific antigen (Homo sapiens, UniProt P07288). The settings on record: PSA.

prostate-specific antigen, sequence (P07288 25-261): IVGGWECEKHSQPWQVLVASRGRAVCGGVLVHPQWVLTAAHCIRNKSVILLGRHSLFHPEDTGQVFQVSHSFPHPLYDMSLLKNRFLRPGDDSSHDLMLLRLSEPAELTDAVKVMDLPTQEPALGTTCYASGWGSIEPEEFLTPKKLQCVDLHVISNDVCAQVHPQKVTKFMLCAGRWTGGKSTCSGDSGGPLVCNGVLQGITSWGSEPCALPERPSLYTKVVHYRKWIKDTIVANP

On to CVFTSDYAFC, for which the Kd was 8 µM.

The term Kd denotes the concentration at which binding is half-saturated.
